In patent US20240277781A1, “Compositions Comprising Microbes and Methods of Use and Making Thereof” (Pendulum Therapeutics, Inc., priority 2021, published 2024):

Experiments:
[1] = tested on: formulation strains (AMUC, BINF, CBEI, CBUT, EHAL); assay type: cell-based
[2] = taken orally; cited from earlier work

Row | Structure (SMILES) | growth inhibition of formulation strains (yield decrease, lag increase) [1] | fecal elimination percentage [2] [%] | plasma half-life [2] [h]
1 | CCC1=C(C)CN(C(=O)NCCc2ccc(S(=O)(=O)NC(=O)N[C@H]3CC[C@H](C)CC3)cc2)C1=O [glimepiride] | largest inhibitory effect overall | 40 | 5 to 8
2 | COc1ccc(Cl)cc1C(=O)NCCc1ccc(S(=O)(=O)NC(=O)NC2CCCCC2)cc1 [glyburide] | largest inhibitory effect overall | 50 | 4 to 10
3 | Cc1cnc(C(=O)NCCc2ccc(S(=O)(=O)NC(=O)NC3CCCCC3)cc2)cn1 [glipizide] | – | 10 | –
